Test results as given in PubChem BioAssay (NCI).
Values joined by “and” are separate entries in the source; they are usually repeats but may differ in a detail not shown here. Identical values can stand only once.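 96-well plates; 48 h exposure; 5 concentrations. Endpoints by linear interpolation between flanking doses. Not reached: highest tested concentration assigned. Here, GI50 denotes the concentration required for 50% inhibition of growth. The concentration for full growth arrest is given as TGI.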

Experiments:
Assay in all cases: inhibition of tumour cell growth, NCI panel, 48 h
U251 CNS = test system: U251 CNS
786-0 renal = test system: 786-0 renal
MCF7 breast = test system: MCF7 breast
SK-OV-3 ovarian = test system: SK-OV-3 ovarian
OVCAR-5 ovarian = test system: OVCAR-5 ovarian
HL-60(TB) leukemia = test system: HL-60(TB) leukemia
HT29 colon = test system: HT29 colon
HCT-116 colon = test system: HCT-116 colon
OVCAR-4 ovarian = test system: OVCAR-4 ovarian
UO-31 renal = test system: UO-31 renal

FC(F)c1ncc(-c2ccc(C(F)(F)F)cc2)c(NC2CCCCCC2)n1
GI50 (U251 CNS): > 10 µM | TGI (U251 CNS): > 10 µM | GI50 (786-0 renal): > 10 µM | TGI (786-0 renal): > 10 µM | GI50 (MCF7 breast): > 10 µM | TGI (MCF7 breast): > 10 µM | GI50 (SK-OV-3 ovarian): > 10 µM | TGI (SK-OV-3 ovarian): > 10 µM | GI50 (OVCAR-5 ovarian): > 10 µM | TGI (OVCAR-5 ovarian): > 10 µM | GI50 (HL-60(TB) leukemia): > 10 µM | TGI (HL-60(TB) leukemia): > 10 µM | GI50 (HT29 colon): > 10 µM | TGI (HT29 colon): > 10 µM | GI50 (HCT-116 colon): > 10 µM | TGI (HCT-116 colon): > 10 µM | GI50 (OVCAR-4 ovarian): > 10 µM | TGI (OVCAR-4 ovarian): > 10 µM | GI50 (UO-31 renal): > 10 µM | TGI (UO-31 renal): > 10 µM

O=S(=O)(/N=S(/Nc1ccccc1)C(F)(F)Cl)c1ccccc1 (stereo not given)
TGI (U251 CNS): > 100 µM | TGI (786-0 renal): > 100 µM | TGI (MCF7 breast): > 100 µM | TGI (SK-OV-3 ovarian): > 100 µM | TGI (OVCAR-5 ovarian): > 100 µM | TGI (HL-60(TB) leukemia): > 100 µM | TGI (HT29 colon): > 100 µM | TGI (HCT-116 colon): > 100 µM | TGI (OVCAR-4 ovarian): > 100 µM | TGI (UO-31 renal): > 100 µM

Cc1cc(=O)[nH]c(N/N=C/c2ccccc2O)n1
GI50 (U251 CNS): 6.01 µM | TGI (U251 CNS): > 100 µM | GI50 (786-0 renal): 12.7 µM | TGI (786-0 renal): > 100 µM | GI50 (MCF7 breast): 0.463 µM | TGI (MCF7 breast): > 100 µM | GI50 (SK-OV-3 ovarian): 6.88 µM | TGI (SK-OV-3 ovarian): > 100 µM | GI50 (OVCAR-5 ovarian): 7.42 µM | TGI (OVCAR-5 ovarian): > 100 µM | GI50 (HL-60(TB) leukemia): 4.26 µM | TGI (HL-60(TB) leukemia): 50.1 µM | GI50 (HT29 colon): 5.72 µM | TGI (HT29 colon): > 100 µM | GI50 (HCT-116 colon): 2.46 µM | TGI (HCT-116 colon): > 100 µM | GI50 (OVCAR-4 ovarian): 2.25 µM | TGI (OVCAR-4 ovarian): > 100 µM | GI50 (UO-31 renal): 5.3 µM | TGI (UO-31 renal): > 100 µM

Cc1c(Nc2nccc3cc(CN4CC[C@@H](O)C4)cnc23)cccc1-c1cccc(-c2nc3cc(CN4CC[C@@H](C(=O)O)C4)cc(C#N)c3o2)c1C
GI50 (U251 CNS): 12.1 µM | TGI (U251 CNS): 26.8 µM | GI50 (786-0 renal): 4.5 µM | TGI (786-0 renal): > 100 µM | GI50 (MCF7 breast): 1.52 µM | TGI (MCF7 breast): 4.26 µM | GI50 (SK-OV-3 ovarian): > 100 µM | TGI (SK-OV-3 ovarian): > 100 µM | GI50 (OVCAR-5 ovarian): 53.7 µM | TGI (OVCAR-5 ovarian): > 100 µM | GI50 (HL-60(TB) leukemia): 9.93 µM | TGI (HL-60(TB) leukemia): 59.7 µM | GI50 (HT29 colon): 2.09 µM | TGI (HT29 colon): 4.64 µM | GI50 (HCT-116 colon): 6.06 µM | TGI (HCT-116 colon): 23.6 µM | GI50 (OVCAR-4 ovarian): 14.3 µM | TGI (OVCAR-4 ovarian): > 100 µM | GI50 (UO-31 renal): 4.7 µM | TGI (UO-31 renal): > 100 µM

CCCCC#Cc1c(I)n(C2OC(CO[Si](C)(C)C(C)(C)C)C3OC(C)(C)OC32)c(=O)n(C(=O)c2ccccc2)c1=O (stereo not given)
GI50 (U251 CNS): 3.25 µM | TGI (U251 CNS): > 100 µM | GI50 (786-0 renal): 3.25 µM | TGI (786-0 renal): 14.5 µM | GI50 (MCF7 breast): 2.14 µM | TGI (MCF7 breast): 5.59 µM | GI50 (SK-OV-3 ovarian): 14.8 µM | TGI (SK-OV-3 ovarian): 27.9 µM | GI50 (OVCAR-5 ovarian): 17.1 µM | TGI (OVCAR-5 ovarian): 31.7 µM | GI50 (HL-60(TB) leukemia): 10.1 µM | TGI (HL-60(TB) leukemia): 28.6 µM | GI50 (HT29 colon): 28.4 µM | TGI (HT29 colon): > 100 µM | GI50 (HCT-116 colon): 1.36 µM | TGI (HCT-116 colon): 2.74 µM | GI50 (OVCAR-4 ovarian): 14 µM | TGI (OVCAR-4 ovarian): 27.2 µM | GI50 (UO-31 renal): 1.97 µM | TGI (UO-31 renal): 7.51 µM

Cc1ccc2oc(=O)c3c(O)c4cccc(OC5OC(C)C6O[C@@H](c7ccccc7)OC6C5OC5OC(C)C(O)C(O)C5O)c4c4oc(=O)c1c2c34 (stereo not given in full)
GI50 (U251 CNS): 0.0825 µM | TGI (U251 CNS): 1.16 µM and 1.58 µM | GI50 (786-0 renal): 0.0447 µM | TGI (786-0 renal): 1.09 µM and 1.91 µM | TGI (MCF7 breast): 2.48 µM | GI50 (SK-OV-3 ovarian): 0.371 µM | TGI (SK-OV-3 ovarian): 0.967 µM and 2.41 µM | GI50 (OVCAR-5 ovarian): 0.218 µM | TGI (OVCAR-5 ovarian): 1.13 µM and 2.7 µM | GI50 (HL-60(TB) leukemia): 0.0418 µM | TGI (HL-60(TB) leukemia): 0.7 µM and 0.361 µM | TGI (HT29 colon): 5.12 µM | GI50 (HCT-116 colon): 0.0257 µM | TGI (OVCAR-4 ovarian): 3.53 µM | GI50 (UO-31 renal): 0.4 µM | TGI (UO-31 renal): 1.99 µM and 7.47 µM

CC(=O)c1c[nH]c2ccc(-c3ccnc(Nc4ccc(NC(=O)C5CCCC5)c(CN5CCOCC5)c4)n3)cc12
GI50 (U251 CNS): 0.0316 µM | GI50 (786-0 renal): 0.031 µM | TGI (786-0 renal): 2.63 µM | GI50 (MCF7 breast): 0.0304 µM | TGI (MCF7 breast): 0.174 µM | GI50 (SK-OV-3 ovarian): 0.0454 µM | TGI (SK-OV-3 ovarian): > 100 µM | GI50 (OVCAR-5 ovarian): 0.0296 µM | TGI (OVCAR-5 ovarian): 0.222 µM | GI50 (HL-60(TB) leukemia): 0.0253 µM | TGI (HL-60(TB) leukemia): 0.0727 µM | GI50 (HT29 colon): 0.0226 µM | TGI (HT29 colon): 2.25 µM | GI50 (HCT-116 colon): 0.0138 µM | TGI (HCT-116 colon): 0.953 µM | GI50 (OVCAR-4 ovarian): 0.0453 µM | TGI (OVCAR-4 ovarian): 0.573 µM | GI50 (UO-31 renal): 0.0273 µM | TGI (UO-31 renal): 0.108 µM

Cc1nn(C)c2ncnc(N/N=C/c3cccc(O)c3O)c12
GI50 (U251 CNS): 0.513 µM | TGI (U251 CNS): > 100 µM | GI50 (786-0 renal): 1.22 µM | TGI (786-0 renal): 11.7 µM | GI50 (MCF7 breast): 0.594 µM | TGI (MCF7 breast): > 100 µM | GI50 (SK-OV-3 ovarian): 2.24 µM | TGI (SK-OV-3 ovarian): > 81 µM | GI50 (OVCAR-5 ovarian): 4.06 µM | TGI (OVCAR-5 ovarian): > 100 µM | GI50 (HL-60(TB) leukemia): 0.322 µM | TGI (HL-60(TB) leukemia): 1.43 µM | GI50 (HT29 colon): 3.94 µM | TGI (HT29 colon): > 100 µM | GI50 (HCT-116 colon): 0.568 µM | TGI (HCT-116 colon): > 100 µM | GI50 (OVCAR-4 ovarian): 0.378 µM | TGI (OVCAR-4 ovarian): 23.4 µM | GI50 (UO-31 renal): 0.251 µM | TGI (UO-31 renal): 2.19 µM
